Data as given in ChEMBL document CHEMBL1201862, “PubChem BioAssay data set” (2004).
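Test compounds were applied to cells in 96-well plates for 48 hours at 5 doses. GI50 marks 50% less growth.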 Active and inactive are the calls of the source. Rule as the data show it: active = GI50 up to about 1.1 µM and inactive = higher.

Columns and labels:
Experiment in all cases: inhibition of tumour cell growth, NCI panel, 48 h
[1] = test system: CAKI-1
[2] = test system: COLO 205
[3] = test system: EKVX
[4] = test system: IGROV-1
[5] = test system: K562
[6] = test system: M14
[7] = test system: NCI-H460
[8] = test system: OVCAR-3
[9] = test system: OVCAR-4
[10] = test system: OVCAR-5
[11] = test system: OVCAR-8
[12] = test system: RXF 393
[13] = test system: SF-539
[14] = test system: SK-MEL-28
[15] = test system: SN12C
[16] = test system: SR
[17] = test system: A498

Measured: GI50

NC(=O)N/N=C(\CCC(=O)N(Cc1ccccc1)Cc1ccccc1)CC(=O)c1ccc(F)cc1
inactive: [1] > 100 µM | [2] > 100 µM | [3] > 100 µM | [4] > 100 µM | [5] > 100 µM | [6] > 100 µM | [7] > 100 µM | [8] > 100 µM | [9] > 100 µM | [10] > 100 µM | [11] > 100 µM | [12] 31.6 µM | [13] 23.8 µM | [14] > 100 µM | [15] > 100 µM | [16] > 100 µM

CCOC(=O)N1CCC(=O)C(CNC23CC4CC(CC(C4)C2)C3)C1 (stereo not given)
inactive: [17] > 100 µM | [1] > 10 µM | [2] 37.4 µM | [3] > 100 µM | [5] 13.1 µM | [7] > 100 µM | [9] 15.1 µM | [10] > 100 µM | [11] 21.2 µM | [12] 17.2 µM | [13] > 100 µM | [14] 18.2 µM | [15] > 100 µM | [16] 21.7 µM

O=[N+]([O-])c1ccc(N2C[N+](c3ccccc3)=NC(c3ccccc3)=N2)cc1
inactive: [1] 63 µM | [2] 50.5 µM | [4] 41.2 µM | [5] 27 µM | [6] 58.1 µM | [7] 39.4 µM | [8] 32.2 µM | [9] 44.5 µM | [10] 73.1 µM | [11] 43.9 µM | [12] 54.5 µM | [13] 72.3 µM | [14] > 100 µM | [15] 46.3 µM | [16] 37.8 µM

CC1(C)Cc2nnsc2C2=C1C(=O)CCS2
inactive: [1] > 100 µM | [2] > 100 µM | [3] > 100 µM | [4] > 100 µM | [5] > 100 µM | [6] > 100 µM | [7] > 100 µM | [8] > 100 µM | [9] > 100 µM | [10] > 100 µM | [11] > 100 µM | [12] > 100 µM | [13] > 100 µM | [14] > 100 µM | [15] > 100 µM

CCC(/C(=N/NC(=O)C[N+](C)(C)C)c1ccccc1)C1OC(=O)c2ccccc21 (stereo not given)
inactive: [1] > 100 µM | [2] > 100 µM | [4] > 100 µM | [5] > 100 µM | [6] > 100 µM | [7] > 100 µM | [8] > 100 µM | [9] > 100 µM | [10] > 100 µM | [11] > 100 µM | [12] > 100 µM | [13] > 100 µM | [14] > 100 µM | [15] > 100 µM | [16] > 100 µM

O=C(O)CSc1nnc(-c2ccc(O)cc2)[nH]1
inactive: [17] > 100 µM | [1] > 100 µM | [2] > 100 µM | [3] > 100 µM | [4] > 100 µM | [5] > 100 µM | [6] > 100 µM | [7] > 100 µM | [8] > 100 µM | [9] > 100 µM | [10] > 100 µM | [11] > 100 µM | [13] > 100 µM | [14] > 100 µM | [15] > 10 µM | [16] > 100 µM

NNC(=O)CCC(=O)NC1C2CC3CC(C2)CC1C3 (stereo not given)
inactive: [17] > 100 µM | [1] > 100 µM | [2] > 100 µM | [4] > 100 µM | [5] > 100 µM | [6] > 100 µM | [7] > 100 µM | [9] > 100 µM | [10] > 100 µM | [11] > 100 µM | [12] 45.4 µM | [13] > 100 µM | [14] > 100 µM | [15] > 100 µM

COc1ccc(OCC(=O)O)c2c1CCC(C(C)C)C2=O (stereo not given)
inactive: [17] > 100 µM | [1] > 100 µM | [2] > 100 µM | [3] > 100 µM | [4] > 100 µM | [5] > 100 µM | [6] > 100 µM | [7] > 100 µM | [8] > 100 µM | [9] > 100 µM | [10] > 100 µM | [11] > 100 µM | [13] > 100 µM | [14] > 100 µM

CC(=O)OC(/C=C1/C=CC(=O)O1)COC(=O)c1ccccc1 (stereo not given) [ACETYLMELODORINOL]
inactive: [17] > 31.2 µM | [1] > 31.2 µM | [2] > 31.2 µM | [3] > 31.2 µM | [4] > 31.2 µM | [5] 10.5 µM | [6] > 31.2 µM | [7] > 31.2 µM | [8] > 31.2 µM | [9] > 31.2 µM | [10] > 31.2 µM | [11] > 31.2 µM | [12] > 31.2 µM | [13] > 31.2 µM | [14] > 31.2 µM | [15] > 31.2 µM
